Reference: patent publication US20240148821A1, “PHARMACEUTICAL USE OF CYCLIC PEPTIDE COMPOUND” (CHUGAI SEIYAKU KABUSHIKI KAISHA, priority 2021, published 2024)
pIC50: −log10 of the molar value. Numbered stars: 1 amine (or outer) side, 2 acyl side, 3 side chain; on linkers, the order of the positions; unused ones are H or OH. Bridge positions count the residues as written; N and C are the ends. Square brackets hold non-standard residues; d marks the D form. Peptide text beside a SMILES is read from it. * marks the point of attachment. hPhe(3,5-F2-4-CF3) = N[C@@H](CCc1cc(F)c(C(F)(F)F)c(F)c1)C(=O)O; hPhe(3-Cl-4-CF3) = N[C@@H](CCc1ccc(C(F)(F)F)c(Cl)c1)C(=O)O; NMePhe(4-CF3) = CN[C@@H](Cc1ccc(C(F)(F)F)cc1)C(=O)O; 3Oxa8azabicyclo(3.2.1)octane = C1CC2COCC1N2*; NMeAbu(4,4,4-F3) = CN[C@@H](CC(F)(F)F)C(=O)O; X109 = O=C([C@H](Cc1cccc(I)c1F)N[*:1])[*:2]; X128 = O=C([C@H](Cc1cccc(F)c1F)N[*:1])[*:2]; Phe(3-I) = N[C@@H](Cc1cccc(I)c1)C(=O)O; Pro(4,4-F2) = O=C(O)[C@@H]1CC(F)(F)CN1; NMeY = CN[C@@H](Cc1ccc(O)cc1)C(=O)O; NMeCha = CN[C@@H](CC1CCCCC1)C(=O)O; Hyp = O=C(O)[C@@H]1C[C@@H](O)CN1; NMeChg = CN[C@H](C(=O)O)C1CCCCC1; NMeI = CC[C@H](C)[C@H](NC)C(=O)O; NMeD = CN[C@@H](CC(=O)O)C(=O)O; NMeL = CN[C@@H](CC(C)C)C(=O)O; Oxazolidin(3-yl) = C1CN(*)CO1; NMeAbu = CC[C@H](NC)C(=O)O; Morpholide = C1CN(*)CCO1; NMeA = CN[C@@H](C)C(=O)O; NMeAib = CNC(C)(C)C(=O)O; Nle = CCCC[C@H](N)C(=O)O; Piperidide = C1CCN(*)CC1; Pra = C#CC[C@H](N)C(=O)O; Ac5c = NC1(C(=O)O)CCCC1; Aze = O=C(O)[C@@H]1CCN1; Sar = CNCC(=O)O

Each compound was assayed on Human pancreatic cancer cell line AsPC-1 (G12D mutation Kras) (assay: AsPC-1 cell growth inhibition (AsPC-1 CGI)). Details: read-out: AsPC-1 cell growth inhibition, 50% growth inhibitory concentration (IC50 value); 96 hours, CellTiter-Glo, values classified in ranges.
Type: cell-based
Procedure: Test compounds were serially dilated with dimethyl sulfoxide, and 200 nL was then dispensed to a U-bottom 96-well plate using Labcyte Echo. […] The cell suspension was dispensed to a. plate containing a test compound at 100 μL per well and incubated at 37° C. in a 5% carbon dioxide gas incubator. 96 hours later, 80 μL of CellTiter-Glo (Promega) was added to each well and fluorescence was measured.
`CC[C@H](C)[C@@H]1NC(=O)[C@H](CC(C)C)N(C)C(=O)C[C@@H](C(=O)N2CCOC2)NC(=O)[C@H]([C@@H](C)CC)N(C)C(=O)C2(CCCC2)NC(=O)[C@@H]2CCCN2C(=O)[C@H](CCc2ccc(C(F)(F)F)c(Cl)c2)NC(=O)CN(C)C(=O)[C@H](CC2CCCCC2)N(C)C(=O)CN(C)C(=O)CN(C)C1=O` [Compound 1247] ([NMeL]I[Sar][Sar][NMeCha][Sar][hPhe(3-Cl-4-CF3)]P[Ac5c][NMeI]D-{Oxazolidin(3-yl)}; lactam N-11) was tested, and the pIC50 was < 6.30. `CCCC[C@@H]1NC(=O)[C@H](Cc2cccc(I)c2F)NC(=O)CN(C)C(=O)[C@H](Cc2ccc(OC)cc2)N(C)C(=O)[C@@H]2CCN2C(=O)[C@H](C)N(C)C(=O)[C@H]([C@@H](C)CC)NC(=O)[C@H](CC)N(C)C(=O)C[C@@H](C(=O)N2CCCCC2)N(C)C(=O)[C@H](CC(C)C)NC(=O)C(C)(C)N(C)C1=O` [Compound 1249] ([NMeAbu]I[NMeA][Aze][NMeY](Me)[Sar][X109][Nle][NMeAib]L[NMeD]-Piperidide; lactam N-11) was tested, and the pIC50 was < 6.30. With `CCCC[C@@H]1NC(=O)[C@H](Cc2cccc(F)c2F)NC(=O)CN(C)C(=O)[C@H](Cc2ccc(OC)cc2)N(C)C(=O)[C@@H]2CCN2C(=O)[C@H](C)N(C)C(=O)[C@H]([C@@H](C)CC)NC(=O)[C@H](CC)N(C)C(=O)C[C@@H](C(=O)N2CCCCC2)N(C)C(=O)[C@H](CC(C)C)NC(=O)C(C)(C)N(C)C1=O` [Compound 1256] ([NMeAbu]I[NMeA][Aze][NMeY](Me)[Sar][X128][Nle][NMeAib]L[NMeD]-Piperidide; lactam N-11) the pIC50 was < 6.30. In the case of `CC[C@H](C)[C@@H]1NC(=O)[C@H](CC(C)C)N(C)C(=O)C[C@@H](C(=O)N2C3CCC2COC3)NC(=O)[C@H]([C@@H](C)CC)N(C)C(=O)C2(CCCC2)NC(=O)[C@@H]2CCCN2C(=O)[C@H](CCc2ccc(C(F)(F)F)c(Cl)c2)NC(=O)CN(C)C(=O)[C@H](CC2CCCCC2)N(C)C(=O)CN(C)C(=O)CN(C)C1=O` [Compound 1257] ([NMeL]I[Sar][Sar][NMeCha][Sar][hPhe(3-Cl-4-CF3)]P[Ac5c][NMeI]D-{3Oxa8azabicyclo(3.2.1)octane}; lactam N-11), the pIC50 was < 6.30. In the case of `C#CC[C@@H]1NC(=O)[C@H](Cc2cccc(I)c2)NC(=O)CN(C)C(=O)[C@H](Cc2ccc(C(F)(F)F)cc2)N(C)C(=O)[C@@H]2CCN2C(=O)[C@H](C)N(C)C(=O)[C@H]([C@@H](C)CC)NC(=O)[C@H](CC(C)C)N(C)C(=O)C[C@@H](C(=O)N2CCCCC2)N(C)C(=O)[C@H](CC(C)C)NC(=O)C(C)(C)N(C)C1=O` [Compound 1258] ([NMeL]I[NMeA][Aze][NMePhe(4-CF3)][Sar][Phe(3-I)][Pra][NMeAib]L[NMeD]-Piperidide; lactam N-11), the pIC50 was < 6.30. `CC[C@H](C)[C@@H]1NC(=O)[C@H](CC(F)(F)F)N(C)C(=O)C[C@@H](C(=O)N2CCOCC2)N(C)C(=O)[C@H](C2CCCCC2)N(C)C(=O)C2(CCCC2)NC(=O)[C@@H]2CC(F)(F)CN2C(=O)[C@H](CCc2cc(F)c(C(F)(F)F)c(F)c2)NC(=O)CN(C)C(=O)[C@H](Cc2ccc(C(F)(F)F)cc2)N(C)C(=O)CN(C)C(=O)CN(C)C1=O` [Compound 1260] ([NMeAbu(4,4,4-F3)]I[Sar][Sar][NMePhe(4-CF3)][Sar][hPhe(3,5-F2-4-CF3)][Pro(4,4-F2)][Ac5c][NMeChg][NMeD]-Morpholide; lactam N-11) was tested, and the pIC50 was ≥ 7.70. `CCO[C@@H]1C[C@H]2C(=O)NC3(CCCC3)C(=O)N(C)[C@@H]([C@@H](C)CC)C(=O)N(C)[C@H](C(=O)N3CCOCC3)CC(=O)N(C)[C@@H](CC(C)C)C(=O)N[C@@H]([C@@H](C)CC)C(=O)N(C)[C@@H](C)C(=O)N3CC[C@H]3C(=O)N(C)[C@@H](Cc3ccc(C(F)(F)F)cc3)C(=O)N(C)CC(=O)N[C@@H](CCc3cc(F)c(C(F)(F)F)c(F)c3)C(=O)N2C1` [Compound 1261] ([NMeL]I[NMeA][Aze][NMePhe(4-CF3)][Sar][hPhe(3,5-F2-4-CF3)][Hyp](Et)[Ac5c][NMeI][NMeD]-Morpholide; lactam N-11) was tested, and the pIC50 was ≥ 7.70.
